Measured values published in PubChem BioAssay (NCI).
Several values for one entry are separate records, joined by “and”; a condition that tells them apart may be missing. Equal values may be shown once.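 Growth conditions: 96-well plates. Treatment: test compound, 48 hours, 5 concentrations. Analysis: linear interpolation between bracketing concentrations; unreached endpoints set to highest concentration. Abbreviation: GI50, concentration required for 50% inhibition of growth. TGI: total growth inhibition.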

Experiments:
Assay in all cases: NCI tumour cell line growth inhibition, 48 h
SNB-19 CNS = test system: SNB-19 CNS
OVCAR-5 ovarian = test system: OVCAR-5 ovarian
TK-10 renal = test system: TK-10 renal
HOP-62 NSCLC = test system: HOP-62 NSCLC
HCT-116 colon = test system: HCT-116 colon
HOP-92 NSCLC = test system: HOP-92 NSCLC
KM12 colon = test system: KM12 colon
MDA-MB-231 breast = test system: MDA-MB-231 breast
NCI-H460 lung = test system: NCI-H460 lung
CAKI-1 renal = test system: CAKI-1 renal

| SMILES | GI50 (SNB-19 CNS) | TGI (SNB-19 CNS) | GI50 (OVCAR-5 ovarian) | TGI (OVCAR-5 ovarian) | GI50 (TK-10 renal) | TGI (TK-10 renal) | GI50 (HOP-62 NSCLC) | TGI (HOP-62 NSCLC) | GI50 (HCT-116 colon) | TGI (HCT-116 colon) | GI50 (HOP-92 NSCLC) | TGI (HOP-92 NSCLC) | GI50 (KM12 colon) | TGI (KM12 colon) | GI50 (MDA-MB-231 breast) | TGI (MDA-MB-231 breast) | GI50 (NCI-H460 lung) | TGI (NCI-H460 lung) | GI50 (CAKI-1 renal) | TGI (CAKI-1 renal) |
| --- | --- | --- | --- | --- | --- | --- | --- | --- | --- | --- | --- | --- | --- | --- | --- | --- | --- | --- | --- | --- |
| COc1ccc2c3c(c4ccccc4cc13)C(=O)N(CCN(C)CCN)C2=O | 0.0692 µM | 1.27 µM | 0.293 µM | 1.54 µM | 0.13 µM | 1.31 µM | 0.0267 µM | 0.264 µM | 0.0312 µM | 1.17 µM | 0.114 µM | 0.896 µM | 0.171 µM | 1.28 µM | 0.518 µM | 1.94 µM | 0.0129 µM | 0.323 µM | 0.0541 µM | 2.82 µM |
| CSc1n(Cc2ccc3ccccc3c2)c(C)c[n+]1Cc1ccc2ccccc2c1 | 0.51 µM | 1.72 µM | 1.2 µM | 2.53 µM | 1.41 µM | 2.88 µM | 1.39 µM | 3.01 µM | 0.615 µM | 1.86 µM | 0.255 µM | 1.28 µM | 0.593 µM | 1.96 µM | 0.484 µM | 1.74 µM | 0.802 µM | 2.18 µM | 1.49 µM | 2.97 µM |
| Cc1cc([N+](=O)[O-])ccc1NS(=O)(=O)c1cc(Cl)ccc1Cl | 3.4 µM | > 100 µM | 5.1 µM | > 100 µM | 3.54 µM | 75.2 µM | 3.21 µM | 16.1 µM | 2.85 µM | 11.9 µM | 0.666 µM | 3.81 µM | 4.04 µM | 34.5 µM | 3.36 µM | 16.2 µM | 2.97 µM | > 43.6 µM | 2.54 µM | > 28.4 µM |
| CC(=O)C1COC(O)C1C (configuration not stated) |  | > 100 µM |  | 59.2 µM |  | > 100 µM |  | 33 µM |  | 39.6 µM |  | 78.7 µM |  | 28 µM |  | 68 µM |  | 44.5 µM |  | 62.9 µM |
| CCOc1ccc2nc(-c3cccc(OCC(=O)NC(C)C)c3)nc(Nc3ccc(-c4cn[nH]c4)cc3)c2c1 | 0.598 µM | 3.76 µM | 3.3 µM | 21.9 µM | 1.89 µM | 5.2 µM | 0.399 µM | 2.22 µM | 0.783 µM | 3.18 µM | 0.452 µM | 3.29 µM | 0.527 µM | 6.9 µM | 1.68 µM | 10.7 µM | 0.34 µM | 1.66 µM | 0.968 µM | 3.87 µM |
| OC(C1CO1)C(O)C1CO1 (configuration not stated) | 107 µM | 139 µM and 334 µM | 93.9 µM | 137 µM and 237 µM | 182 µM | 150 µM and 404 µM | 8.57 µM | 36.5 µM and 99.7 µM | 40.2 µM | 110 µM and 209 µM | 56.1 µM | 146 µM and 219 µM |  | 112 µM and 254 µM | 63 µM | 69.6 µM and 377 µM | 2.14 µM | 53.5 µM and 140 µM | 15 µM and 5.46 µM | 91.5 µM and 158 µM |
| Fc1cccc(CSc2ncnc3c2ncn3C2CCCS2)c1 (configuration not stated) |  | > 100 µM |  | > 100 µM |  | > 100 µM |  | 40.3 µM |  | 26.3 µM |  | 67.4 µM |  | 38.9 µM |  | > 100 µM |  | 22.7 µM |  | > 100 µM |
| O=c1oc(-c2ccccc2)cc2cccc(O)c12 | 30.6 µM | > 100 µM | 55.3 µM | > 100 µM | 9.45 µM | 39.8 µM | 19.5 µM | 40.9 µM | 19.8 µM | 45.2 µM | 16.8 µM | 61.6 µM | 20.8 µM | > 69.3 µM | 29.2 µM | > 85.7 µM | 29 µM | > 100 µM | 37.3 µM | > 81.7 µM |
| COc1cc(F)cc([C@@H](CO)NC(=O)[C@@H](C)N2Cc3ccc(-c4nc(NC5CCOCC5)ncc4Cl)cc3C2=O)c1 | 1.73 µM | > 100 µM | < 0.0127 µM | > 100 µM | 0.0624 µM | > 76.8 µM | 0.0519 µM | > 86.2 µM | 0.0173 µM | > 54.9 µM | 0.0321 µM | 0.26 µM | 0.0988 µM | 37.4 µM | < 0.0175 µM | 18.7 µM | 6.14 µM | > 100 µM | 1.93 µM | 69.1 µM |
| CCOC(=O)NC1=C(N2CC2)C(=O)C(NC(=O)OCC)=C(N2CC2)C1=O | 6.66 µM | 25 µM and 30.2 µM | 19.9 µM and 7.01 µM | 25 µM and 32.6 µM and 35.9 µM | > 25 µM | > 25 µM and 65.1 µM | 1.56 µM and 1.75 µM | 15.1 µM and 7.44 µM and 2.9 µM | 4.59 µM and 4.37 µM | 15.1 µM and 9.91 µM and 11.8 µM | 6.18 µM | 16.1 µM and 11.2 µM and 10.1 µM | 16.7 µM | 25 µM and 35.3 µM |  | 15.3 µM | 0.505 µM and 0.721 µM | 20 µM and 16.2 µM and 31 µM | 2.53 µM and 3.42 µM | 13.2 µM and 18.3 µM and 23.7 µM |
| Oc1ccc2ccccc2c1C1NN=C(c2ccccc2)S1 (configuration not stated) | 0.683 µM | > 100 µM | 1.95 µM | > 77.5 µM | 0.559 µM | 38.2 µM | 0.454 µM | 31.7 µM | 0.408 µM | > 34.4 µM | 0.244 µM | 12.2 µM | 0.409 µM | 32.9 µM | 0.621 µM | 35.7 µM | 0.34 µM | 11 µM | 0.339 µM | 17.8 µM |
| COc1ccc(-c2cn(-c3cccc(C(=O)/C=C/c4ccc(O)c(OC)c4)c3)c(=O)[nH]2)cc1 | 4.59 µM | 43.9 µM | 8.25 µM | 35.4 µM | 7.38 µM | > 85.4 µM | 8.85 µM | > 100 µM | 1.89 µM | 4.87 µM | 2.61 µM | 20.5 µM | 1.7 µM | 3.57 µM | 4.06 µM | > 54.3 µM | 3.21 µM | 10.4 µM | 5.79 µM | 50.4 µM |
| O=C(O)C1C(=O)Oc2c(cccc2[N+](=O)[O-])C1O (configuration not stated) |  | > 100 µM |  | > 100 µM |  | > 100 µM |  | > 100 µM |  | > 100 µM |  | > 100 µM |  |  |  | > 100 µM |  | > 100 µM |  | > 100 µM |
